Experimental findings from paper PMC5291709, “Structure of the active form of human origin recognition complex and its ATPase motor module” (eLife, 2017) are described below.

Molecules are shown by their SMILES. Where a chain is given by its changes, count along the chain named.

Assay [1] addresses T1, HsORC motor module (HsORC1/4/5) (Homo sapiens, UniProt O43913+O43929+Q13415, O43929:Y174C).
T1 construct: gene ORC1; ORC1 471-861 (BAH domain removed), ORC4 full-length 1-436, ORC5 1-284 (WHD removed); Sf9 insect cells, two-Strep-SumoStar tag on ORC1 cleaved; heterotrimer
T1 sequence (Q13415 471-861): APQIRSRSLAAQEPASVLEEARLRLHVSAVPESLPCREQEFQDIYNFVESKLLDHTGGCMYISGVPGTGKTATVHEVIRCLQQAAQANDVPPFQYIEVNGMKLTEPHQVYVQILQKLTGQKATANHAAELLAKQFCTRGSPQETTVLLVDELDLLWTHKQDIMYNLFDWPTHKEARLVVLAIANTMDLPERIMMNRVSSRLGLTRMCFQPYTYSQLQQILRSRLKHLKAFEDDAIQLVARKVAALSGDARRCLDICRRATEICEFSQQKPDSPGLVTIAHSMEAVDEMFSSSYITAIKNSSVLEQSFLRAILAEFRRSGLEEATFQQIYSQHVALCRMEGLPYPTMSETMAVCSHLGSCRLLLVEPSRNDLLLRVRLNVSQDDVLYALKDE
T1 sequence (O43929 1-436 Y174C): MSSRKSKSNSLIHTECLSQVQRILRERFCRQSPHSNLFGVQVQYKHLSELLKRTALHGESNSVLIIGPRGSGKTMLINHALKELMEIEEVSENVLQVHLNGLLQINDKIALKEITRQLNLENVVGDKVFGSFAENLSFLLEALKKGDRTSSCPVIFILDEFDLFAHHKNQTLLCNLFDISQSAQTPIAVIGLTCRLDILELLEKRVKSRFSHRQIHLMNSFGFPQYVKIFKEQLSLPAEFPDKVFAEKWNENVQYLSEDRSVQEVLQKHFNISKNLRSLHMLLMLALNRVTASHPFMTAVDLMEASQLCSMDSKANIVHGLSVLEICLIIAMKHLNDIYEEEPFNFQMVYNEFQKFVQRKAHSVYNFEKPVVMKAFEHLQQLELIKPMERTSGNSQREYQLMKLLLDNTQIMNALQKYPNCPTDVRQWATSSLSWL
T1 sequence (O43913 1-284): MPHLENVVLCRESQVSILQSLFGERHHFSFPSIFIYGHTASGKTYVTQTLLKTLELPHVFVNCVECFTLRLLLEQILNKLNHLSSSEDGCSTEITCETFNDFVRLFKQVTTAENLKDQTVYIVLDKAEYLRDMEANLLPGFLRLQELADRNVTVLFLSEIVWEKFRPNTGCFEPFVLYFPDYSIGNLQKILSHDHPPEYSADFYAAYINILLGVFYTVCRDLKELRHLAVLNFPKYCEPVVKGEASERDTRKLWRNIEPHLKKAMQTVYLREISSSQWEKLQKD
Put plainly: radiolabelled ATPase assay, TLC, Michaelis-Menten fit. The class given is biochemical. The conditions noted are these: 50 mM Hepes-NaOH pH 7.5, 200 mM KCl, 5 mM MgCl2, 5 mM DTT, 37 C, 12.5-200 uM ATP, 10 uM complex; [gamma-32P]ATP tracer; ORC1/4 interface; Meier-Gorlin Syndrome mutant.

The target of assay [2] is T2, HsORC motor module (HsORC1/4/5) (Homo sapiens, UniProt O43913+O43929+Q13415, Q13415:R720Q).
T2 construct: gene ORC1; ORC1 471-861 (BAH domain removed), ORC4 full-length 1-436, ORC5 1-284 (WHD removed); Sf9 insect cells, two-Strep-SumoStar tag on ORC1 cleaved; heterotrimer
T2 sequence (Q13415 471-861 R720Q): T1 sequence (Q13415 471-861) with R250Q
T2 sequence (O43929 1-436): T1 sequence (O43929 1-436 Y174C) with C174Y
T2 sequence (O43913 1-284): T1 sequence (O43913 1-284)
Put plainly: radiolabelled ATPase assay, TLC. The class given is biochemical. The conditions noted are these: 50 mM Hepes-NaOH pH 7.5, 200 mM KCl, 5 mM MgCl2, 5 mM DTT, 37 C, 12.5-200 uM ATP, 10 uM complex; [gamma-32P]ATP tracer; ORC1/4 interface; Meier-Gorlin Syndrome mutant (sensor-2 trigger).

Assay [3] has as its target T3, HsORC motor module (HsORC1/4/5) (Homo sapiens, UniProt O43913+O43929+Q13415, Q13415:D620A).
T3 construct: gene ORC1; ORC1 471-861 (BAH domain removed), ORC4 full-length 1-436, ORC5 1-284 (WHD removed); Sf9 insect cells, two-Strep-SumoStar tag on ORC1 cleaved; heterotrimer
T3 sequence (Q13415 471-861 D620A): T1 sequence (Q13415 471-861) with D150A
T3 sequence (O43929 1-436): T1 sequence (O43929 1-436 Y174C) with C174Y
T3 sequence (O43913 1-284): T1 sequence (O43913 1-284)
Put plainly: radiolabelled ATPase assay, TLC. The class given is biochemical. Particulars: 50 mM Hepes-NaOH pH 7.5, 200 mM KCl, 5 mM MgCl2, 5 mM DTT, 37 C, 12.5-200 uM ATP, 10 uM complex; [gamma-32P]ATP tracer; ORC1/4 interface; Walker-B mutant.

In the next assay the target is T4, HsORC1-5 (Homo sapiens, UniProt O43913+O43929+Q13415, Q13415:R720Q).
T4 construct: gene ORC1; heteropentamer without ORC6; Sf9 insect cells; with Origin recognition complex subunit 5; Origin recognition complex subunit 2; Origin recognition complex subunit 3
T4 sequence (Q13415 471-861 R720Q): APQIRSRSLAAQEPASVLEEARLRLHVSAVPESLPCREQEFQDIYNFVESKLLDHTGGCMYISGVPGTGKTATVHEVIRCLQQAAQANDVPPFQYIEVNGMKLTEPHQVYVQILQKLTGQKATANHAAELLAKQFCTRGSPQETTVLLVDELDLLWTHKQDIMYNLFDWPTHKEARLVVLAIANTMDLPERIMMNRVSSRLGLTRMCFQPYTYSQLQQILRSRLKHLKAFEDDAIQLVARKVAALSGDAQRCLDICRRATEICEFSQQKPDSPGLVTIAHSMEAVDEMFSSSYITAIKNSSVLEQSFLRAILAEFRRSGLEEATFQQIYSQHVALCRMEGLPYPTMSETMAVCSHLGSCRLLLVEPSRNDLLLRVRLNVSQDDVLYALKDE
T4 sequence (O43929 whole entry): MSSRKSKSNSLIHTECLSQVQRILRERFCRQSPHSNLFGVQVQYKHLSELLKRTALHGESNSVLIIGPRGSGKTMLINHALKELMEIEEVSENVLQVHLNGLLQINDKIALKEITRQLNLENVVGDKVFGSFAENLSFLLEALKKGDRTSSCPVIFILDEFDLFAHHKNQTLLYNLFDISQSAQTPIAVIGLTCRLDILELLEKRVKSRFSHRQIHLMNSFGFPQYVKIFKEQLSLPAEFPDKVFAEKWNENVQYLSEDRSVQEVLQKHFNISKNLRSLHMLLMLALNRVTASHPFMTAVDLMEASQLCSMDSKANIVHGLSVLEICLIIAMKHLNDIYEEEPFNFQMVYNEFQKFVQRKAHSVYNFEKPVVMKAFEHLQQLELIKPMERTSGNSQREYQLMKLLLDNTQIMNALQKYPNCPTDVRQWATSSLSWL
T4 sequence (O43913 whole entry): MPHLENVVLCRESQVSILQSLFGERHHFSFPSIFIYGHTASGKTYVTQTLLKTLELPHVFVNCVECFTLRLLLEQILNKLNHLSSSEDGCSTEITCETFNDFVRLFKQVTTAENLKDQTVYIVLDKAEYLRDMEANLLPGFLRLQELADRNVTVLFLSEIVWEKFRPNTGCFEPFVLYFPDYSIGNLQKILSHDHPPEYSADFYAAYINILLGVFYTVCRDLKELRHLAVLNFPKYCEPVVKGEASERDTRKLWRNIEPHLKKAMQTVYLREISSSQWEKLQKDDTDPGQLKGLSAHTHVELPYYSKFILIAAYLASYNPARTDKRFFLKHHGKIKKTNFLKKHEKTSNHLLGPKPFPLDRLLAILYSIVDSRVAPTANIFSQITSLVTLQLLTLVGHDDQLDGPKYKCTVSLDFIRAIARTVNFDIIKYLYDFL
T4 sequence (Q13416 whole entry partner): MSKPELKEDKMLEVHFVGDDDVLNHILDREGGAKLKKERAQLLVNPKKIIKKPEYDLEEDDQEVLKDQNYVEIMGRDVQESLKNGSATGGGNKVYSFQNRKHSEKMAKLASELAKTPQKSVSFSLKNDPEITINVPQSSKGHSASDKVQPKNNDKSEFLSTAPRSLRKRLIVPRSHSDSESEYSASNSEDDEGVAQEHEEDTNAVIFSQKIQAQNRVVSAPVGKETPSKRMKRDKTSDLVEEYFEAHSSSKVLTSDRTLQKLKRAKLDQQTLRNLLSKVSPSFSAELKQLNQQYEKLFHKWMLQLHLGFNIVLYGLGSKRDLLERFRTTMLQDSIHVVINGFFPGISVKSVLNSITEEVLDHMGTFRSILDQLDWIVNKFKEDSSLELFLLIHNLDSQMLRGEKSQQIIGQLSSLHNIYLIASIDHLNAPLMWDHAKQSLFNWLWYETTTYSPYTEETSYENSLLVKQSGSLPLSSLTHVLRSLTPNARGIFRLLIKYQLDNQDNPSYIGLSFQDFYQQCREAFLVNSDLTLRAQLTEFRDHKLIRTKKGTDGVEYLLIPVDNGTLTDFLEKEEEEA
T4 sequence (Q9UBD5 whole entry partner): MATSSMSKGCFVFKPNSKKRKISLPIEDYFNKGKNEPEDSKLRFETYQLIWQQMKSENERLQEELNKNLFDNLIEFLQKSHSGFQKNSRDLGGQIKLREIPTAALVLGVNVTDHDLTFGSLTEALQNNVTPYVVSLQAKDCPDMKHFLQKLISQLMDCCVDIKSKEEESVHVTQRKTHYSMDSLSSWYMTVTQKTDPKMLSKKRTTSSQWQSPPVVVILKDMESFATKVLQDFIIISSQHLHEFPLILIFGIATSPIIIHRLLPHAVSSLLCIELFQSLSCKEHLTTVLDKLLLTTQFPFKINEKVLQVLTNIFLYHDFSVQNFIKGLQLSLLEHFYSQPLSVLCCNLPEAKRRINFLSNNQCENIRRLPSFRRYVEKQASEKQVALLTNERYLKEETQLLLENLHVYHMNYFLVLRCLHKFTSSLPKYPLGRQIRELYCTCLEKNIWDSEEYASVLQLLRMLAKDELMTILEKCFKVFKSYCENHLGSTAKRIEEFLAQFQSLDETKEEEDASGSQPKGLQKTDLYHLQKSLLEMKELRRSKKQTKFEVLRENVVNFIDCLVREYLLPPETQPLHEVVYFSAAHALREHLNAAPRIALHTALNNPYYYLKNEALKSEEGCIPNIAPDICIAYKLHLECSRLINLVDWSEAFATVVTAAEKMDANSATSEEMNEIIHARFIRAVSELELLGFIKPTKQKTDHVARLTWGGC
Put plainly: radiolabelled ATPase assay, TLC. The class given is biochemical. Particulars: 50 mM Hepes-NaOH pH 7.5, 200 mM KCl, 5 mM MgCl2, 5 mM DTT, 37 C, 12.5-200 uM ATP, 10 uM complex; [gamma-32P]ATP tracer; ORC1/4 interface; Meier-Gorlin Syndrome mutant.

Assay [4] addresses T5, HsORC motor module (HsORC1/4/5) (Homo sapiens, UniProt O43913+O43929+Q13415).
T5 construct: gene ORC1; ORC1 471-861 (BAH domain removed), ORC4 full-length 1-436, ORC5 1-284 (WHD removed); Sf9 insect cells, two-Strep-SumoStar tag on ORC1 cleaved; heterotrimer
T5 sequence (Q13415 471-861): T1 sequence (Q13415 471-861)
T5 sequence (O43929 1-436): T1 sequence (O43929 1-436 Y174C) with C174Y
T5 sequence (O43913 1-284): T1 sequence (O43913 1-284)
The experiment in a line: X-ray crystal structure, […] A. The class given is binding. Particulars: unhydrolysed ATP at the ORC1/ORC4 and ORC4/ORC5 interfaces and on ORC5; Mg2+.

Assay [5] addresses T6, HsORC motor module (HsORC1/4/5) (Homo sapiens, UniProt O43913+O43929+Q13415, O43929:D159A/Q13415:D620A).
T6 construct: gene ORC1; ORC1 471-861 (BAH domain removed), ORC4 full-length 1-436, ORC5 1-284 (WHD removed); Sf9 insect cells, two-Strep-SumoStar tag on ORC1 cleaved; heterotrimer
T6 sequence (Q13415 471-861 D620A): T1 sequence (Q13415 471-861) with D150A
T6 sequence (O43929 1-436 D159A): T1 sequence (O43929 1-436 Y174C) with D159A, C174Y
T6 sequence (O43913 1-284): T1 sequence (O43913 1-284)
The experiment in a line: radiolabelled ATPase assay, TLC. The class given is biochemical. The conditions noted are these: 50 mM Hepes-NaOH pH 7.5, 200 mM KCl, 5 mM MgCl2, 5 mM DTT, 37 C, 12.5-200 uM ATP, 10 uM complex; [gamma-32P]ATP tracer; ORC1/4 interface; double Walker-B mutant.

As to `Nc1ncnc2c1ncn2[C@@H]1O[C@H](COP(=O)(O)OP(=O)(O)OP(=O)(O)O)[C@@H](O)[C@H]1O` [ATP], the ATPase activity result in assay [1] was “renders the motor module hyperactive for ATPase activity”. The “radiolabelled ATPase assay, TLC” value was “ORC1-R720Q abolished ATPase activity of the motor module” in assay [2]; “Disrupting the ORC1 Walker-B motif (ORC1 D620A) effectively abolished ATPase activity” in assay [3]; “the ORC1 MGS mutation R720Q all show very little activity” at HsORC1-5; “A double mutant of the Walker-B motif of both ORC1 and ORC4 also abolished activity” in assay [5]. Moreover, the “X-ray crystal structure, 3.4 A” value in assay [4] was “The HsORC motor module crystallized with ATP, and the nucleotides can be clearly seen”.
